The values below come from US20260001928A1 (CORTERIA PHARMACEUTICALS, priority 2022, published 2026).

*1 amine or outer side, *2 acyl side, *3 side chain or, on linkers, in order; H or OH if unused. Where a SMILES comes first, the peptide text is derived from it. Side-chain parts run from the residue outwards. [ ]: non-standard residue; d: D form. The star is where a group is joined. C16 diacid = O=C(O)CCCCCCCCCCCCCCC(=O)*; γGlu = O=C(O)[C@H](CCC(=O)[*:2])N[*:1]; NMeI = CC[C@H](C)[C@H](NC)C(=O)O; αMeL = CC(C)C[C@](C)(N)C(=O)O; Dap = NC[C@H](N)C(=O)O; Aib = CC(C)(N)C(=O)O

As usually defined, the EC50 is the concentration giving half of the maximal effect. Higher therefore signals a need for much substance.

Series [1] has as its target T1, human CRF2a receptor (Homo sapiens, UniProt Q13324).
T1 construct: expressed in transfected cells; host or cells: TeloHEAC cells
T1 sequence (Q13324 1-411): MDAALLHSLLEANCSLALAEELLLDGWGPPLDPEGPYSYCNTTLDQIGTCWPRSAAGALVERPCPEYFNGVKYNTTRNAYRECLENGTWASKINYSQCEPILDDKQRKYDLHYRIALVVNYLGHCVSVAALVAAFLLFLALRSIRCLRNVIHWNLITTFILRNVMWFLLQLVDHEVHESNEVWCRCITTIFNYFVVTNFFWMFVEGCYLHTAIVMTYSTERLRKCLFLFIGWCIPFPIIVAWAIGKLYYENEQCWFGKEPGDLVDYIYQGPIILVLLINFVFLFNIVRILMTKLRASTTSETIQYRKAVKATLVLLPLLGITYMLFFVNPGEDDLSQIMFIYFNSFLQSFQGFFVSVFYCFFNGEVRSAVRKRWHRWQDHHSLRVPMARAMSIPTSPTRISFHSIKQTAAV
Briefly: Activity at human CRF2a receptor, cAMP functional assay in TeloHEAC cells. The class given is cell-based. The following applies: TeloHEAC cells stably expressing human CRF2a receptor, relative to urocortin 2 (100 nM = 100%). A digest of the protocol: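 TeloHEAC cells stably expressing human CRF2a (10000 cells/well, suspended in HBSS/20 mM HEPES with 2 mM IBMX) were exposed to compounds for 30 min at 37 °C. cAMP was read as the 665/620 nm fluorescence ratio after 1 h at room temperature. EC50 was derived relative to 100 nM urocortin 2, set as 100%.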

The target in series [2] is T2, CFR1R receptor (Homo sapiens, UniProt P34998).
T2 construct: host or cells: CHO-K1 (clone 2)
T2 sequence (P34998 24-415): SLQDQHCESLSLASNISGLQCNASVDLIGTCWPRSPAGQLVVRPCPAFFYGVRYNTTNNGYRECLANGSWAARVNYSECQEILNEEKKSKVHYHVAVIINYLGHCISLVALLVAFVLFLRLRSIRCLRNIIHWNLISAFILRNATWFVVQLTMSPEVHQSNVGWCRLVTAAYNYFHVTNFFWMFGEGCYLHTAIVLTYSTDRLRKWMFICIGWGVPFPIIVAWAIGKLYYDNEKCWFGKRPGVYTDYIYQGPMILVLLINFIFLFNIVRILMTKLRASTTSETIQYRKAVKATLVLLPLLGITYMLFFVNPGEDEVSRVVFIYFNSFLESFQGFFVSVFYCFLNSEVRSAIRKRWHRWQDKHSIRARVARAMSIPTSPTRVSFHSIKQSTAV
Briefly: Activity at anti-target CFR1R receptor, cAMP assay in CRF1R-overexpression CHO-K1 cells. The class given is cell-based. The settings on record: 100% = Sauvagine at 100 nM; for EC50: cAMP. A digest of the protocol: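 The method mirrors that used with TeloHAEC cells. Here, thawed clone 2 cells seeded at 4000 cells/well are tested, and 100 nM Sauvagine sets the top of the activation scale.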
(In general: Changes in cAMP serve as a functional read-out for many G protein-coupled receptors.)

Series [3] can be described thus: Chemical stability in buffer (pH 7.4 / pH 4.5), % purity loss. The class given is physicochemical. The following applies: 40° C. vs 5° C., 14 or 28 days; for Buffer stability pH 7.4 % purity loss: 100 mM phosphate buffer pH 7.4; for Buffer stability pH 4.5 % purity loss: 100 mM acetate buffer pH 4.5. The method, boiled down: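 LC-UV gave % loss after 14 or 28 days of storage at 5 °C or 40 °C. Samples were diluted supernatants from compound incubated 1 h at room temperature at 10 mg/mL target, in 100 mM acetate pH 4.5 or 100 mM phosphate pH 7.4.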

For series [4], the system named is Sprague Dawley rats. The experiment in a line: Effect on systolic blood pressure, telemetry in Sprague Dawley rats. The class given is in vivo, rat. The settings on record: 0.1 mg/kg SC; for Systolic blood pressure (Mean) % change from baseline, 8 h / Systolic blood pressure (Mean) % change from baseline, 12 h / Systolic blood pressure (Mean) % change from baseline, 24 h: n=2; for Duration of action: last time point with an effect on BP still observed. The method, boiled down:
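Values are % change from a 1 h pre-dose baseline in systolic pressure, tracked by telemetry for up to 48 hours after a single 0.1 mg/kg subcutaneous dose. Rats (Sprague Dawley, n=2 per peptide) carried aortic catheters and recovered at least 10 days post-surgery; duration of action marks the last time point still showing an effect.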

As to `CC[C@H](C)[C@H](NC(C)=O)C(=O)N[C@H](C(=O)N[C@@H](CC(C)C)C(=O)N[C@@H](CO)C(=O)N[C@@H](CC(C)C)C(=O)N[C@@H](CC(=O)O)C(=O)N[C@H](C(=O)N1CCC[C@H]1C(=O)N[C@H](C(=O)N[C@@H](CCCCN)C(=O)N[C@@](C)(CC(C)C)C(=O)N[C@@H](CCCCNC(=O)CC[C@H](NC(=O)CCCCCCCCCCCCCCC(=O)O)C(=O)O)C(=O)N[C@@H](CCCCN)C(=O)N[C@H](C(=O)N[C@@H](CC(C)C)C(=O)N[C@@H](CC(C)C)C(=O)N[C@@H](CCC(=O)O)C(=O)N[C@@H](CCC(N)=O)C(=O)N[C@@H](CCC(=O)O)C(=O)N[C@@H](CCCCN)C(=O)N[C@@H](CCC(N)=O)C(=O)N[C@@H](CCCCN)C(=O)N[C@@H](CCCCN)C(=O)N[C@@H](CCC(N)=O)C(=O)N[C@@H](CCCNC(=N)N)C(=O)N[C@@H](CCC(=O)O)C(=O)N[C@@H](CCC(N)=O)C(=O)N[C@@H](C)C(=O)N[C@@H](CCC(=O)O)C(=O)N[C@H](C(=O)N[C@@H](CC(N)=O)C(=O)NC(C)(C)C(=O)N[C@@H](CCC(N)=O)C(=O)N[C@H](C(=O)N[C@@H](CC(C)C)C(=O)N[C@@H](C)C(=O)N[C@@H](CCC(N)=O)C(=O)N[C@H](C(N)=O)C(C)C)[C@@H](C)CC)[C@@H](C)O)[C@@H](C)CC)[C@@H](C)CC)C(C)C)C(C)C` [compound 43] (Ac-IVLSLDVPIK[αMeL]K([γGlu-C16 diacid])KILLEQEKQKKQREQAETN[Aib]QILAQV-NH2), the concentration giving a half-maximal response (EC50) in series [1] came out at 0.3 nM. Moreover, in series [2], the “Emax (% I)” value was determined as 1 % I and the EC50 is above 250 nM. Moreover, in series [3], the “Buffer stability pH 7.4 % purity loss” value is listed as 0/nd ^ %. In series [4], the “Systolic blood pressure (Mean) % change from baseline, 8 h” value is reported as −18%; the “Systolic blood pressure (Mean) % change from baseline, 12 h” value is −1%; the “Systolic blood pressure (Mean) % change from baseline, 24 h” value is 13%; the Duration of action was 12 h.

The compound `CC[C@H](C)[C@H](NC(C)=O)C(=O)N[C@H](C(=O)N[C@@H](CC(C)C)C(=O)N[C@@H](CO)C(=O)N[C@@H](CC(C)C)C(=O)N[C@@H](CC(=O)O)C(=O)N[C@@H](C(=O)N1CCC[C@H]1C(=O)N[C@H](C(=O)N[C@@H](CCCCN)C(=O)N[C@@H](CC(C)C)C(=O)N[C@@H](CCCCNC(=O)CC[C@H](NC(=O)CCCCCCCCCCCCCCC(=O)O)C(=O)O)C(=O)N[C@@H](CCCCN)C(=O)N[C@H](C(=O)N[C@@H](CC(C)C)C(=O)N[C@@H](CC(C)C)C(=O)N[C@@H](CCC(=O)O)C(=O)N[C@@H](CCC(N)=O)C(=O)N[C@@H](CCC(=O)O)C(=O)N[C@@H](CCCCN)C(=O)N[C@@H](CCC(N)=O)C(=O)N[C@@H](CCCCN)C(=O)N[C@@H](CCCCN)C(=O)N[C@@H](CCC(N)=O)C(=O)N[C@@H](CCCNC(=N)N)C(=O)N[C@@H](CCC(=O)O)C(=O)N[C@@H](CCC(N)=O)C(=O)N[C@@H](C)C(=O)N[C@@H](CCC(=O)O)C(=O)N[C@H](C(=O)N[C@@H](CC(N)=O)C(=O)N[C@@H](C)C(=O)N[C@@H](CCC(N)=O)C(=O)N[C@H](C(=O)N[C@@H](CC(C)C)C(=O)N[C@@H](C)C(=O)N[C@@H](CCC(N)=O)C(=O)N[C@H](C(N)=O)C(C)C)[C@@H](C)CC)[C@@H](C)O)[C@@H](C)CC)[C@@H](C)CC)C(C)C)C(C)C` [compound 47] (Ac-IVLSLD[dV]PIKLK([γGlu-C16 diacid])KILLEQEKQKKQREQAETNAQILAQV-NH2) came in with a concentration for a half-maximal effect (EC50) in series [1] of 0.09 nM. In series [2], the “Emax (% I)” value is on record as 10 % I and the EC50 was above 250 nM. In series [3], the “Buffer stability pH 4.5 % purity loss” value was 0% and the “Buffer stability pH 7.4 % purity loss” value stood at 9.0%. Moreover, in series [4], the “Systolic blood pressure (Mean) % change from baseline, 8 h” value is listed as −14%; the “Systolic blood pressure (Mean) % change from baseline, 12 h” value was −6%; the “Systolic blood pressure (Mean) % change from baseline, 24 h” value is 2%; the Duration of action amounted to 23 h.

In series [1], `CC[C@H](C)[C@H](NC(C)=O)C(=O)N[C@H](C(=O)N[C@@H](CC(C)C)C(=O)N[C@@H](CO)C(=O)N[C@@H](CC(C)C)C(=O)N[C@@H](CC(=O)O)C(=O)N[C@@H](C(=O)N1CCC[C@H]1C(=O)N[C@H](C(=O)N[C@@H](CCCCN)C(=O)N[C@@H](CC(C)C)C(=O)N[C@@H](CCCCNC(=O)CC[C@H](NC(=O)CCCCCCCCCCCCCCC(=O)O)C(=O)O)C(=O)N[C@@H](CCCCN)C(=O)N[C@H](C(=O)N[C@@H](CC(C)C)C(=O)N[C@@H](CC(C)C)C(=O)N[C@@H](CCC(=O)O)C(=O)N[C@@H](CCC(N)=O)C(=O)N[C@@H](CCC(=O)O)C(=O)N[C@@H](CCCCN)C(=O)N[C@@H](CCC(N)=O)C(=O)N[C@@H](CCCCN)C(=O)N[C@@H](CCCCN)C(=O)N[C@@H](CCC(N)=O)C(=O)N[C@@H](CCCNC(=N)N)C(=O)N[C@@H](CCC(=O)O)C(=O)N[C@@H](CCC(N)=O)C(=O)N[C@@H](C)C(=O)N[C@@H](CCC(=O)O)C(=O)N[C@H](C(=O)N[C@@H](CC(N)=O)C(=O)N[C@@H](CN)C(=O)N[C@@H](CCC(N)=O)C(=O)N[C@H](C(=O)N[C@@H](CC(C)C)C(=O)N[C@@H](C)C(=O)N[C@@H](CCC(N)=O)C(=O)N[C@H](C(N)=O)C(C)C)[C@@H](C)CC)[C@@H](C)O)[C@@H](C)CC)[C@@H](C)CC)C(C)C)C(C)C` [compound 55] (Ac-IVLSLD[dV]PIKLK([γGlu-C16 diacid])KILLEQEKQKKQREQAETN[Dap]QILAQV-NH2) returned an EC50 of 0.42 nM. Moreover, in series [2], the “Emax (% I)” value is 5 % I and the EC50 was above 250 nM. For the same compound, in series [3], the “Buffer stability pH 4.5 % purity loss” value is 28.9% and the “Buffer stability pH 7.4 % purity loss” value is recorded as 73.5%. For the same compound, in series [4], the “Systolic blood pressure (Mean) % change from baseline, 8 h” value is −31%; the “Systolic blood pressure (Mean) % change from baseline, 12 h” value was −23%; the “Systolic blood pressure (Mean) % change from baseline, 24 h” value was 0%; the Duration of action is given as 23 h.

`CC[C@H](C)[C@H](NC)C(=O)N[C@H](C(=O)N[C@@H](CC(C)C)C(=O)N[C@@H](CO)C(=O)N[C@@H](CC(C)C)C(=O)N[C@@H](CC(=O)O)C(=O)N[C@@H](C(=O)N1CCC[C@H]1C(=O)N[C@H](C(=O)N[C@@H](CCCCN)C(=O)N[C@@H](CC(C)C)C(=O)N[C@@H](CCCCNC(=O)CC[C@H](NC(=O)CCCCCCCCCCCCCCC(=O)O)C(=O)O)C(=O)N[C@@H](CCCCN)C(=O)N[C@H](C(=O)N[C@@H](CC(C)C)C(=O)N[C@@H](CC(C)C)C(=O)N[C@@H](CCC(=O)O)C(=O)N[C@@H](CCC(N)=O)C(=O)N[C@@H](CCC(=O)O)C(=O)N[C@@H](CCCCN)C(=O)N[C@@H](CCC(N)=O)C(=O)N[C@@H](CCCCN)C(=O)N[C@@H](CCCCN)C(=O)N[C@@H](CCC(N)=O)C(=O)N[C@@H](CCCNC(=N)N)C(=O)N[C@@H](CCC(=O)O)C(=O)N[C@@H](CCC(N)=O)C(=O)N[C@@H](C)C(=O)N[C@@H](CCC(=O)O)C(=O)N[C@H](C(=O)N[C@@H](CC(N)=O)C(=O)NC(C)(C)C(=O)N[C@@H](CCC(N)=O)C(=O)N[C@H](C(=O)N[C@@H](CC(C)C)C(=O)N[C@@H](C)C(=O)N[C@@H](CCC(N)=O)C(=O)N[C@H](C(N)=O)C(C)C)[C@@H](C)CC)[C@@H](C)O)[C@@H](C)CC)[C@@H](C)CC)C(C)C)C(C)C` [compound 64] (H-[NMeI]VLSLD[dV]PIKLK([γGlu-C16 diacid])KILLEQEKQKKQREQAETN[Aib]QILAQV-NH2): the midpoint of the response in series [1], the EC50, lay at 0.19 nM. Besides, in series [2], the “Emax (% I)” value amounted to 4 % I and the EC50 was above 250 nM. In addition, the “Buffer stability pH 4.5 % purity loss” value in series [3] is listed as “nd/0 ^ %”. Moreover, in series [4], the “Systolic blood pressure (Mean) % change from baseline, 8 h” value is on record as −25%; the “Systolic blood pressure (Mean) % change from baseline, 12 h” value was −13%; the “Systolic blood pressure (Mean) % change from baseline, 24 h” value was 3%; the Duration of action is reported as 23 h.
